Assays:
Human GLP-1 receptor = molecular target: T1, Human GLP-1 receptor (Homo sapiens, UniProt P43220); experiment: In vitro Human GLP-1 R agonist activity (cyclic AMP determination) in CHO/human GLP1R cells; format: cell-based
T1 construct: The full-length cDNA was cloned in pcDNA3.1(+); expressed in transfected cells
Experimental: The novel peptidomimetics were screened for Human GLP-1 receptor (HGLP-1 R) agonist activity (in vitro), using the cAMP cell-based assay, in stably transfected CHO/human GLP1R cells. […] CHO cells were grown in Ham's F12 medium containing L-Glutamine (2 mM), HEPES (25 mM), NaHCO3 (1.1 g/L) and supplemented with NewBorn Calf Serum (NBCS; 10%), Penicillin (50 U/ml (v/v)) and Streptomycin (50 ug/ml (v/v)). Cells were split every 3 days 1:8.
The cDNA encoding the human GLP-1 receptor was isolated by RT-PCR according to standard protocol. The full-length cDNA was cloned in pcDNA3.1(+). […] Clones expressing the receptor were generated by G418 (800 μg/ml active, Sigma) selection. The stable clones were thereafter maintained at 500 ug/ml (G418). The selected clone was used between passages 9-25 for cAMP assays.
The trypsin was inactivated using Ham's F12 medium containing 10% NBCS and the cells were suspended in 2 ml of complete medium. […] The medium was aspirated off from the 12 well plate and the cells were washed once using Ham's F12 (plain). […] The cells were incubated with the test compounds for 30 min in humidified atmosphere and 37° C. After the incubation, the medium was removed and cells were washed once with plain Ham's F12. Subsequently, the cells were lysed by adding 500 ul of ice cold 0.1 N HCl to each well and shaking for 30 minutes at 200 rpm. The cells were then scrapped, the lysate was collected in micro centrifuge tubes and centrifuged at 12000 rpm for 10 min to remove the debris. 300 ul of supernatant from each micro-centrifuge tube was then removed into a glass tube and dried under N2 for 30 min, for cAMP estimation. The total cAMP was estimated from the sample according to the manufacturer's protocol using Cyclic AMP immunoassay kit (R&D systems, Minneapolis. MN). The remaining supernatant is used to determine the protein concentration using micro BCA (Sigma). Data is calculated as percent of control (Vehicle: water) and expressed as Mean±SD.

human glucagon receptor = molecular target: T2, human glucagon receptor (Homo sapiens, UniProt P47871); experiment: In vitro human glucagon antagonist activity (inhibition of cAMP production) in CHO/human glucagon R cells; format: cell-based; conditions: with saturated concentration of glucagon peptide
T2 construct: The full-length cDNA was cloned in pcDNA3.1 (Invitrogen); expressed in transfected cells
T2 sequence (P47871 26-477): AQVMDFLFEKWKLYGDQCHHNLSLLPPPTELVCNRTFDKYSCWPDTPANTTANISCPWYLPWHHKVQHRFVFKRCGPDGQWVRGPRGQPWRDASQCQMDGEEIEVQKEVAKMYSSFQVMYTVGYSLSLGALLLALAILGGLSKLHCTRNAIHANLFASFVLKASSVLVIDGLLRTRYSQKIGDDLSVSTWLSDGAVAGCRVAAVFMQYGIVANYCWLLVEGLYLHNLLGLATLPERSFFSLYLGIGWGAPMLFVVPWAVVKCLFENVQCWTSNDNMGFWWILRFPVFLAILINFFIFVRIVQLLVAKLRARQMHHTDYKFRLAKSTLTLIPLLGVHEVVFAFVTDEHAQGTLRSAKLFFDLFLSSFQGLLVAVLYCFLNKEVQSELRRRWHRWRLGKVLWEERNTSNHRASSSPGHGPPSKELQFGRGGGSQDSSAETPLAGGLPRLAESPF

DPP IV = DPP IV (Homo sapiens, UniProt P27487); experiment: Stability against DPP IV enzyme; format: in vitro ADME; conditions: 37° C.; for % degradation of peptidomimetics in 24 h when incubated with DPP-IV enzyme: 2 μM peptidomimetic; for half-life at 2 μM: DPP IV enzyme, pH 7.8, 2 μM peptidomimetic, read-out: half-life (t1/2) when incubated with DPP-IV enzyme
DPP IV, sequence (P27487 whole entry, species assumed): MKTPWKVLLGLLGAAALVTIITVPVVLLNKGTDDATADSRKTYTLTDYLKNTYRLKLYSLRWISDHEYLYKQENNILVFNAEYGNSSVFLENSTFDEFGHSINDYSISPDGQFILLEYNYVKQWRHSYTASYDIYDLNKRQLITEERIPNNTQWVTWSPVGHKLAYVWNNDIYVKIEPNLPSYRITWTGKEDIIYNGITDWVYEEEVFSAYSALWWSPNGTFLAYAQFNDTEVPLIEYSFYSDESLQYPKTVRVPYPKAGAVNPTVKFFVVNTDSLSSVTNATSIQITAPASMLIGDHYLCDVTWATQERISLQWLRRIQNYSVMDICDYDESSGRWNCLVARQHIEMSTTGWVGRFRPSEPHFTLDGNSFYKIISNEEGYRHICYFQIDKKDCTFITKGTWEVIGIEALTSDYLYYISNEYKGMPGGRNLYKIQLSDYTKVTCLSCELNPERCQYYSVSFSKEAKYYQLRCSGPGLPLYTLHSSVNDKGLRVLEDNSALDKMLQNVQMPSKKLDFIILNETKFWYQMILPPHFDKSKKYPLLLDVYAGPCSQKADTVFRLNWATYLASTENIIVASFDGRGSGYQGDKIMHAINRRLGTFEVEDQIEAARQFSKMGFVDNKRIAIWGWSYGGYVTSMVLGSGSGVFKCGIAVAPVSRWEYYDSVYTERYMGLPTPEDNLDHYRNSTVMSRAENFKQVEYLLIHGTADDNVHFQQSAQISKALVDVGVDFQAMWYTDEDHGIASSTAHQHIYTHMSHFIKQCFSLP
Experimental: (§1) Reactions were terminated by the addition of TFA/H2O (15 mL, 10% (v/v)). […] The column was equilibrated with TFA/H20, at a flow rate of 1 mL/min.

[1] = Stability in human plasma; format: in vitro ADME; conditions: 2 μM peptidomimetic, pooled human plasma, 37° C.; for half-life at 2 μM: pH 7.8, read-out: half-life (t1/2) when incubated with human plasma
Experimental: as §1

[2] = Stability in simulated gastric fluid; format: in vitro ADME; conditions: 2 μM peptidomimetic, simulated gastric fluid pH 1.5, 37° C.; for half-life at 2 μM: read-out: half-life (t1/2) when incubated with simulated gastric fluid
Experimental: as §1

[3] = Stability in simulated intestinal fluid; format: in vitro ADME; conditions: 2 μM peptidomimetic, simulated intestinal fluid pH 7.5, 37° C.; for half-life at 2 μM: read-out: half-life (t1/2) when incubated with simulated intestinal fluid
Experimental: as §1

[4] = Stability in liver microsomes; format: in vitro ADME; conditions: 2 μM peptidomimetic, human liver microsomes, 37° C.; for half-life at 2 μM: pH 7.8, read-out: half-life (t1/2) when incubated with liver microsomes
Experimental: as §1

T1 sequence (P43220 24-463): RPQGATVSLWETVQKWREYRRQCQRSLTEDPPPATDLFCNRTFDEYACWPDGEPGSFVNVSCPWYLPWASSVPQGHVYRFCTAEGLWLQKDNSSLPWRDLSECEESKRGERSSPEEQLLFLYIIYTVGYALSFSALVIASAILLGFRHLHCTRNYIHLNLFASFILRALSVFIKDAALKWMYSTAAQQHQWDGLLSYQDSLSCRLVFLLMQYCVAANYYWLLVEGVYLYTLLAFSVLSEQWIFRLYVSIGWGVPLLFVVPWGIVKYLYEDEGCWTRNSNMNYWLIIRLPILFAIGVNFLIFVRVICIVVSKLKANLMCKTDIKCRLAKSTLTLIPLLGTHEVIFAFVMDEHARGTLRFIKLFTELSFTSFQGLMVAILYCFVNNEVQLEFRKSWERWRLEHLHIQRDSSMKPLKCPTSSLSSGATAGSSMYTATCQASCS

Row | Structure (SMILES) | Human GLP-1 R activity (cAMP release), % activity with respect to control (Human GLP-1 receptor; 1 nM test compound) [%] | Human GLP-1 R activity (cAMP release), % activity with respect to control (Human GLP-1 receptor; 10 nM test compound) [%] | Human GLP-1 R activity (cAMP release), % activity with respect to control (Human GLP-1 receptor; 100 nM test compound) [%] | Human GLP-1 R activity (cAMP release), % activity with respect to control (Human GLP-1 receptor; 1 μM test compound) [%] | Human GLP-1 R activity (cAMP release), % activity with respect to control (Human GLP-1 receptor; 10 μM test compound) [%] | % degradation of peptidomimetics in 24 h when incubated with DPP-IV enzyme (DPP IV) [%] | half-life at 2 μM (DPP IV) [h] | % degradation of peptidomimetics in 24 h when incubated with human plasma [1] [%] | half-life at 2 μM [1] [h] | half-life (t1/2) when incubated with simulated gastric fluid [2] | % degradation of peptidomimetics in 24 h when incubated with simulated gastric fluid [2] [%] | half-life (t1/2) when incubated with simulated intestinal fluid [3] | % degradation of peptidomimetics in 24 h when incubated with simulated intestinal fluid [3] [%] | % degradation of peptidomimetics in 24 h when incubated with liver microsomes [4] [%] | half-life at 2 μM [4] [h] | half-life at 2 μM [2] [h] | half-life at 2 μM [3] [h] | other results
1 | CCc1cc(OC)ccc1-c1ccc(CC(NC(=O)[C@H](CC(=O)O)NC(=O)[C@H](CO)NC(=O)[C@@H](NC(=O)[C@H](Cc2ccccc2)NC(=O)[C@@H](NC(=O)CNC(=O)[C@H](CCC(N)=O)NC(=O)C2(NC(=O)[C@@H](N)Cc3c[nH]cn3)CC2)[C@@H](C)O)[C@@H](C)O)C(=O)NC(CCCc2ccc(F)cc2C(F)(F)F)C(N)=O)cc1 (single isomer, unassigned) [compound 72] | 45 ± 0.022 | 84 ± 0.46 | 90 ± 0.41 | 99 ± 0.66 | 99 ± 0.03 | 86 | 9 | 70 | 8 | (8) h | 15 | (6) h | 41 | 77 | 1 |  |  | Human Glucagon receptor antagonistic activity shown as inhibition of cAMP production of Glucagon peptide (human glucagon receptor; 1 nM test compound): 9 ± 0.11 pmol/ml/μg prt; Human Glucagon receptor antagonistic activity shown as inhibition of cAMP production of Glucagon peptide (human glucagon receptor; 10 nM test compound): 6 ± 0.12 pmol/ml/μg prt; Human Glucagon receptor antagonistic activity shown as inhibition of cAMP production of Glucagon peptide (human glucagon receptor; 100 nM test compound): 5 ± 0.14 pmol/ml/μg prt; Human Glucagon receptor antagonistic activity shown as inhibition of cAMP production of Glucagon peptide (human glucagon receptor; 1 μM test compound): 3 ± 0.22 pmol/ml/μg prt; Human Glucagon receptor antagonistic activity shown as inhibition of cAMP production of Glucagon peptide (human glucagon receptor; 10 μM test compound): 0 pmol/ml/μg prt
2 | CCc1cc(OC)ccc1-c1ccc(CC(CNC(CCCc2ccccc2F)C(N)=O)NC[C@H](CC(=O)O)NC(=O)[C@H](CO)NC(=O)[C@@H](NC(=O)C(C)(Cc2ccccc2F)NC(=O)[C@@H](NC(=O)CNC(=O)[C@H](CCC(N)=O)NC(=O)C(C)(C)NC(=O)[C@@H](N)Cc2c[nH]cn2)[C@H](C)O)[C@H](C)O)cc1 (single isomer, unassigned) [compound 203] | 86 ± 0.11 | 99 ± 0.09 | 99 ± 0.06 | 99 ± 0.14 | 99 ± 0.19 | 00 | > 24 | 00 | > 24 |  | 00 |  | 00 | 31 |  | > 24 | > 24 | half-life (t1/2) when incubated with liver microsomes [4]: (5) h
3 | CCc1cc(OC)ccc1-c1ccc(CC(CNC(CCCc2ccccc2)C(N)=O)NC(=O)[C@H](CC(=O)O)NC(=O)[C@H](CO)NC(=O)[C@@H](NC(=O)C(C)(Cc2ccccc2F)NC(=O)[C@@H](NC(=O)CNC(=O)C(CCC#N)NC(=O)C(C)(C)NC(=O)[C@@H](N)Cc2c[nH]cn2)[C@H](C)O)[C@H](C)O)cc1 (single isomer, unassigned) [compound 190] | 41 ± 0.09 | 82 ± 0.07 | 87 ± 0.04 | 95 ± 0.01 | 98 ± 0.08 | 00 | > 24 | 00 | > 24 |  | 45 |  | 00 | 85 | 2 | 4 | > 24 | 
4 | CCc1cc(OC)ccc1-c1ccc(CC(CNC(CCCc2ccccc2)C(N)=O)NC[C@H](CC(=O)O)NC(=O)[C@H](CO)NC(=O)[C@@H](NC(=O)C(C)(Cc2ccccc2F)NC(=O)[C@@H](NC(=O)CNC(=O)[C@H](CCC(N)=O)NC(=O)C(C)(C)NC(=O)[C@H](Cc2c[nH]cn2)NC(=O)OC)[C@H](C)O)[C@H](C)O)cc1 (single isomer, unassigned) [compound 198] | 82 ± 0.22 | 87 ± 0.12 | 92 ± 0.14 | 99 ± 0.22 | 99 ± 0.26 | 00 | > 24 | 00 | > 24 |  | 49 |  | 00 | 82 | 2 | 4 | > 24 | 
5 | CCc1cc(OC)ccc1-c1ccc(CC(NC(=O)[C@H](CC(=O)O)NC(=O)[C@H](CO)NC(=O)[C@@H](NC(=O)[C@H](Cc2ccccc2)NC(=O)[C@@H](NC(=O)CNC(=O)[C@H](CCC(N)=O)NC(=O)C(C)(C)NC(=O)[C@@H](N)Cc2c[nH]cn2)[C@@H](C)O)[C@@H](C)O)C(=O)NC(CCCc2ccc(OC)cc2Cl)C(N)=O)cc1 (single isomer, unassigned) [compound 68] | 39 ± 0.11 | 80 ± 0.09 | 88 ± 0.06 | 96 ± 0.14 | 99 ± 0.19 | 74 | 9 | 75 | 8 | (8) h | 12 | (6) h | 46 | 83 | 1 |  |  | 

— patent publication US8883963B2 (Cadila Healthcare Limited, priority 2007, dated 2014)
